Reference: patent publication US12331046B2, “CTPS1 inhibitors and uses thereof” (Nimbus Clotho, Inc., priority 2020, dated 2025)

Each molecule was assayed against human CTPS1 (Homo sapiens (Human), UniProt P17812) (assay: hCTPS1 biochemical assay (ADP-Glo)). Conditions: hCTPS1 25 nM, ATP 120 uM, UTP 160 uM, GTP 60 uM, L-Glutamine 100 uM, 25 degrees C.
Sequence of human CTPS1 (P17812 whole entry): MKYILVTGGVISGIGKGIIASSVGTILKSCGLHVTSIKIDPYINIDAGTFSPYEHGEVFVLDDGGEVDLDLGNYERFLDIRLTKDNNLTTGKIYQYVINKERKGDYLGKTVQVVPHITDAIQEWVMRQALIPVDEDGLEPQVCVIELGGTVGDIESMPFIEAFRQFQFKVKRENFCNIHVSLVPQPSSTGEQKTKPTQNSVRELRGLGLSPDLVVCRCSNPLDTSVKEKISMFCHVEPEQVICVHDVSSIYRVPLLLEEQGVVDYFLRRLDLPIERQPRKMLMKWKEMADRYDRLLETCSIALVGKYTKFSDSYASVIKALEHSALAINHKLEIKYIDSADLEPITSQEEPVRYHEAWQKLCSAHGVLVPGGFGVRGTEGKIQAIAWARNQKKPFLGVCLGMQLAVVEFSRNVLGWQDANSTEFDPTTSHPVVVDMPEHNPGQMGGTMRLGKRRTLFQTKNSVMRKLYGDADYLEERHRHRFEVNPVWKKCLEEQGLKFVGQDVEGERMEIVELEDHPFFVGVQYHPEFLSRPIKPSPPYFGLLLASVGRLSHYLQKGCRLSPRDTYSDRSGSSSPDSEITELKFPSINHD

IC50 [nM]	Structure (SMILES)
100 to 1000	CCOc1cncc(-c2ccc(C(=O)NCc3nc(NS(=O)(=O)C4CC4)cs3)nc2)n1 [I-195, N-[(4-cyclopropanesulfonamido-1,3-thiazol-2-yl)methyl]-5-(6-ethoxypyrazin-2-yl)pyridine-2-carboxamide]
≥ 1000	COC1CN(c2cncc(-c3ccc(C(=O)NCc4cc(NS(=O)(=O)C5CC5)ccn4)cc3)n2)C1 [I-46]
100 to 1000	CCOc1cncc(-c2cnc(C(=O)N[C@@H](CN3CCC3)c3cc(NS(=O)(=O)C4CC4)ccn3)s2)n1 (single isomer, unassigned) [I-221]
< 100	CC(C)Oc1cncc(-c2ccc(C(=O)NCc3cc(NS(=O)(=O)C4CC4)ccn3)cc2)n1 [I-33]
< 100	CCOc1cncc(-c2cnc(C(=O)NC(CCN3CCCC3)c3cc(NS(=O)(=O)C4CC4)ccn3)s2)n1 (stereo not drawn) [I-175, N-(1-(4-(cyclopropanesulfonamido)pyridin-2-yl)-3-(pyrrolidin-1-yl)propyl)-5-(6-ethoxypyrazin-2-yl)thiazole-2-carboxamide]
100 to 1000	O=C(NCc1cc(NS(=O)(=O)C2CC2)ccn1)c1ncc(-c2cnn3cccc3c2)s1 [I-200, N-((4-(cyclopropanesulfonamido)pyridin-2-yl)methyl)-5-(pyrrolo[1,2-b]pyridazin-3-yl)thiazole-2-carboxamide]
100 to 1000	CCC[C@@H]1CCN1c1ncc(C(=O)NCc2cc(NS(=O)(=O)C3CC3)ccn2)nc1C (single isomer, unassigned) [I-58]
< 100	CCOC[C@H](NC(=O)c1ncc(-c2cncc(OCC)n2)s1)c1cc(NS(=O)(=O)C2CC2)ccn1 [I-96, (R)—N-(1-(4-(cyclopropanesulfonamido)pyridin-2-yl)-2-ethoxyethyl)-5-(6-ethoxypyrazin-2-yl)thiazole-2-carboxamide]
< 100	CCOc1cncc(-c2cnc(C(=O)N[C@H](CN3CCCC3)c3cc(NS(=O)(=O)C4CC4)ccn3)s2)n1 [I-199, (R)—N-(1-(4-(cyclopropanesulfonamido)pyridin-2-yl)-2-(pyrrolidin-1-yl)ethyl)-5-(6-ethoxypyrazin-2-yl)thiazole-2-carboxamide]
< 100	CCOc1cncc(-c2sc(C(=O)N[C@H](CC)c3cc(NS(=O)(=O)C4CC4)ccn3)nc2C)n1 [I-220, (R)—N-(1-(4-(cyclopropanesulfonamido)pyridin-2-yl)propyl)-5-(6-ethoxypyrazin-2-yl)-4-methylthiazole-2-carboxamide]
100 to 1000	O=C(NCc1cc(NS(=O)(=O)C2CC2)ccn1)c1ncc(-c2cnn3cc(Cl)ccc23)s1 [I-202]
≥ 1000	CCOc1cncc(-c2ccc(C(=O)NC3(c4csc(N(C)S(=O)(=O)C5CC5)n4)CC3)nc2)n1 [I-14, 5-(6-ethoxypyrazin-2-yl)-N-(1-(2-(N-methylcyclopropanesulfonamido)thiazol-4-yl)cyclopropyl)picolinamide]
< 100	CCOc1cncc(-c2cnc(C(=O)NC(CCN3CCCCC3)c3cc(NS(=O)(=O)C4CC4)ccn3)s2)n1 (stereo not drawn) [I-176, N-(1-(4-(cyclopropanesulfonamido)pyridin-2-yl)-3-(piperidin-1-yl)propyl)-5-(6-ethoxypyrazin-2-yl)thiazole-2-carboxamide]
< 100	CCOc1cncc(-c2ccc(C(=O)NCc3cc(NS(=O)(=O)C(F)(F)F)ccn3)nc2)n1 [I-23, 5-(6-ethoxypyrazin-2-yl)-N-((4-((trifluoromethyl)sulfonamido)pyridin-2-yl)methyl) picolinamide]
< 100	CCOc1cncc(-c2cnc(C(=O)N[C@](C)(COC)c3cc(NS(=O)(=O)C4CC4)ccn3)s2)n1 [I-90, (S)—N-(2-(4-(cyclopropanesulfonamido)pyridin-2-yl)-1-methoxypropan-2-yl)-5-(6-ethoxypyrazin-2-yl)thiazole-2-carboxamide]
< 100	CCOc1cncc(-c2ccc(C(=O)NCc3cncc(NS(=O)(=O)C4CC4)c3)nc2)n1 [I-26, N-((5-(cyclopropanesulfonamido)pyridin-3-yl)methyl)-5-(6-ethoxypyrazin-2-yl) picolinamide]
100 to 1000	CCOc1cncc(-c2ccc3c(c2)C(=O)N(Cc2cc(NS(=O)(=O)C4CC4)ccn2)C3=O)n1 [I-78, N-(2-[[5-(6-ethoxypyrazin-2-yl)-1,3-dioxoisoindol-2-yl]methyl]pyridin-4-yl) cyclopropane Sulfonamide]
< 100	CCOc1cncc(-c2cnc(C(=O)N[C@@H](CN3CCN(C)CC3)c3cc(NS(=O)(=O)C4CC4)ccn3)s2)n1 (single isomer, unassigned) [I-191]
< 100	CCOc1cncc(-c2cnc(C(=O)N[C@H](CN3CCOCC3(C)C)c3cc(NS(=O)(=O)C4CC4)ccn3)s2)n1 (single isomer, unassigned) [I-117]
100 to 1000	CCOc1cncc(-c2cnc(C(=O)N3CCNCC3c3cc(NS(=O)(=O)C4CC4)ccn3)s2)n1 (stereo not drawn) [I-223, N-(2-(1-(5-(6-ethoxypyrazin-2-yl)thiazole-2-carbonyl)piperazin-2-yl)pyridin-4-yl)cyclopropanesulfonamide]
< 100	CCOc1cncc(-c2cnc(C(=O)N[C@@H](CN(C)C)c3cc(NS(=O)(=O)C4CC4)ccn3)s2)n1 (single isomer, unassigned) [I-234]

IC50 [nM]	Structure (SMILES)
< 100	CCOc1cncc(-c2cnc(C(=O)N[C@H](c3cc(NS(=O)(=O)C4CC4)ccn3)[C@H]3C[C@@H](N(C)C)C3)s2)n1 (single isomer, unassigned) [I-105]
< 100	CCc1ccn2ncc(-c3cnc(C(=O)NCc4cc(NS(=O)(=O)C5CC5)ccn4)s3)cc12 [I-196, N-((4-(cyclopropanesulfonamido)pyridin-2-yl)methyl)-5-(5-ethylpyrrolo[1,2-b]pyridazin-3-yl)thiazole-2-carboxamide]
100 to 1000	CCOc1cncc(-c2cnc(C(=O)NCc3cc(NS(=O)(=O)C4CC4)ccn3)c(CN(C)C)c2)n1 [I-229]
< 100	CCOc1cncc(-c2cnc(C(=O)N3CCCC3c3cncc(NS(=O)(=O)C4CC4)c3)s2)n1 (stereo not drawn) [I-232, N-(5-(1-(5-(6-ethoxypyrazin-2-yl)thiazole-2-carbonyl)pyrrolidin-2-yl)pyridin-3-yl)cyclopropanesulfonamide]
< 100	CCOc1cncc(-c2cnc(C(=O)N3CCOCC3c3cc(NS(=O)(=O)C4CC4)ccn3)s2)n1 (stereo not drawn) [I-209, N-(2-{4-[5-(6-ethoxypyrazin-2-yl)-1,3-thiazole-2-carbonyl]morpholin-3-yl}pyridin-4-yl)cyclopropanesulfonamide]
< 100	Cc1nc(C(=O)NCc2cc(NS(=O)(=O)C3CC3)ccn2)cnc1N1CCC12CCCCC2 [I-279]
≥ 1000	CCc1nc2cc(C(=O)NCc3cc(NS(=O)(=O)C4CC4)ccn3)ccc2[nH]c1=O [I-171, N-((4-(cyclopropanesulfonamido)pyridin-2-yl)methyl)-3-ethyl-2-oxo-1,2-dihydroquinoxaline-6-carboxamide]
100 to 1000	O=C(NCc1cc(NS(=O)(=O)C2CC2)ccn1)c1ncc(-n2cnc3ccc(Cl)cc32)s1 [I-193, 5-(6-chloro-1H-benzo[d]imidazol-1-yl)-N-((4-(cyclopropanesulfonamido)pyridin-2-yl)methyl)thiazole-2-carboxamide]
< 100	CCOc1cncc(-c2cnc(C(=O)N[C@H](CN3CCN(C)CC3)c3cc(NS(=O)(=O)C4CC4)ccn3)s2)n1 (single isomer, unassigned) [I-192]
< 100	CCOc1cncc(-c2cnc(C(=O)NC(CN3[C@H](C)COC[C@@H]3C)c3cc(NS(=O)(=O)C4CC4)ccn3)s2)n1 (stereo partly drawn) [I-111]
≥ 1000	Cc1cn(-c2ccc(C(=O)NC3(c4csc(NS(=O)(=O)C5CC5)n4)CC3)nc2)cn1 [I-8, N-(1-(2-(cyclopropanesulfonamido)thiazol-4-yl)cyclopropyl)-5-(4-methyl-1H-imidazol-1-yl)picolinamide]
100 to 1000	CCOc1cncc(-c2ccc(C(=O)N3CCC[C@@H]3c3cc(NS(=O)(=O)C4CC4)ccn3)cc2)n1 [I-77, (R)—N-(2-(1-(4-(6-ethoxypyrazin-2-yl)benzoyl)pyrrolidin-2-yl)pyridin-4-yl)cyclopropanesulfonamide]
< 100	CCOc1cncc(-c2cnc(C(=O)N[C@@H](C[C@@H]3CCCCN3)c3cc(NS(=O)(=O)C4CC4)ccn3)s2)n1 (single isomer, unassigned) [I-139]
< 100	CCOc1cncc(-c2ccc(C(=O)NC3(c4cccc(NS(=O)(=O)C(F)F)c4)CC3)c(F)c2)n1 [I-267, N-[1-[3-(difluoromethanesulfonamido)phenyl]cyclopropyl]-4-(6-ethoxypyrazin-2-yl)-2-fluorobenzamide]
100 to 1000	O=C(NCc1cc(NS(=O)(=O)C2CC2)ccn1)c1ccc(-c2cncc(N3CCCC3)n2)cc1 [I-42]
100 to 1000	CCOc1cncc(-c2cnc(C(=O)N3CCN(C)CC3c3cc(NS(=O)(=O)C4CC4)ccn3)s2)n1 (stereo not drawn) [I-218, N-(2-(1-(5-(6-ethoxypyrazin-2-yl)thiazole-2-carbonyl)-4-methylpiperazin-2-yl)pyridin-4-yl)cyclopropanesulfonamide]
< 100	CCOc1cncc(-c2cnc(C(=O)N[C@@H](c3cc(NS(=O)(=O)C4CC4)ccn3)C3CCN(C)CC3)s2)n1 [I-147, (R)—N-((4-(cyclopropanesulfonamido)pyridin-2-yl)(1-methylpiperidin-4-yl)methyl)-5-(6-ethoxypyrazin-2-yl)thiazole-2-carboxamide]
< 100	CCOc1cncc(-c2ncc(C(=O)N3CCC[C@@H]3c3cccc(NS(=O)(=O)C(F)F)c3)s2)n1 [I-74, N-[3-[(2R)-1-[2-(6-ethoxypyrazin-2-yl)-1,3-thiazole-5-carbonyl]pyrrolidin-2-yl]phenyl]-1,1-difluoromethanesulfonamide]
< 100	CCOc1cncc(-c2ccc(C(=O)NCc3cc(NS(=O)(=O)C4CC4)ccn3)cc2)n1 [I-15, N-((4-(cyclopropanesulfonamido)pyridin-2-yl)methyl)-4-(6-ethoxypyrazin-2-yl) benzamide]
< 100	CCOc1cncc(-c2cnc(C(=O)NC(CN3CCCC3)c3cc(NS(=O)(=O)C4CC4)ccn3)s2)n1 (stereo not drawn) [I-208]

Structure (SMILES)	IC50 [nM]
CCOc1cncc(-c2cnc(C(=O)NCc3cc(NS(=O)(=O)C4CC4)ccn3)o2)n1 [I-56, N-((4-(cyclopropanesulfonamido)pyridin-2-yl)methyl)-5-(6-ethoxypyrazin-2-yl)oxazole-2-carboxamide]	≥ 1000
